PubChem BioAssay (NCI)
Several values for one entry are separate records, joined by “and”; a condition that tells them apart may be missing. Equal entries are not always repeated.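 Step 1: Grow cells in 96-well plates. Step 2: Expose to compound for 48 hours at 5 concentrations. Step 3: Interpolate endpoints linearly; if unreached, use highest concentration. Abbreviation: GI50, concentration required for 50% inhibition of growth. TGI denotes the concentration required for complete inhibition of growth.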

Legend:
Test in all cases: NCI tumour cell line growth inhibition, 48 h
HOP-92 NSCLC = tested on: HOP-92 NSCLC
MALME-3M melanoma = tested on: MALME-3M melanoma
BT-549 breast = tested on: BT-549 breast
NCI-H460 lung = tested on: NCI-H460 lung
OVCAR-5 ovarian = tested on: OVCAR-5 ovarian
COLO 205 colon = tested on: COLO 205 colon
SW-620 colon = tested on: SW-620 colon
OVCAR-8 ovarian = tested on: OVCAR-8 ovarian
KM12 colon = tested on: KM12 colon
ACHN renal = tested on: ACHN renal

SMILES	GI50 (HOP-92 NSCLC)	TGI (HOP-92 NSCLC) [µM]	GI50 (MALME-3M melanoma)	TGI (MALME-3M melanoma) [µM]	GI50 (BT-549 breast)	TGI (BT-549 breast)	GI50 (NCI-H460 lung)	TGI (NCI-H460 lung) [µM]	GI50 (OVCAR-5 ovarian)	TGI (OVCAR-5 ovarian) [µM]	GI50 (COLO 205 colon)	TGI (COLO 205 colon)	GI50 (SW-620 colon)	TGI (SW-620 colon) [µM]	GI50 (OVCAR-8 ovarian)	TGI (OVCAR-8 ovarian) [µM]	GI50 (KM12 colon)	TGI (KM12 colon)	GI50 (ACHN renal)	TGI (ACHN renal) [µM]
CC(C)(CO)N=Cc1ccccc1[O-].CC(C)(CO)N=Cc1ccccc1[O-].[Co+2]	12.9 µM	95.7	49.5 µM	> 100	14.5 µM	> 63.4 µM	> 100 µM	> 100	> 79.7 µM	> 100	55.9 µM	> 100 µM	72.4 µM	> 100	> 100 µM	> 100	> 97.8 µM	> 100 µM	> 81.4 µM	> 100
O=C(CCN1CCCC1)Nc1ccc2c(Nc3ccccc3)c3ccccc3nc2c1	0.432 µM	2.26	1.46 µM	2.83	1.5 µM	3.09 µM	0.0489 µM	1.2	1.52 µM	4.4	0.787 µM	2.49 µM	0.232 µM	1.87	0.851 µM	5.51	0.546 µM	2.7 µM	0.243 µM	1.51
O=C(O)C1C(C(=O)O)C2(Cl)C(Cl)=C(Cl)C1(Cl)C2(Cl)Cl.[Cd] (configuration not stated)	19.2 µM	34.8	2.33 µM	7.05	1.33 µM	2.74 µM	3.71 µM	18	18.2 µM	32.9	20.5 µM	38.6 µM	23.1 µM	77.1	28.8 µM	> 86.6	16.9 µM	37.5 µM	21.3 µM	43.9
CC[C@H](C)[C@H](NC(=O)[C@H]1CCCCN1C)C(=O)N(C)[C@H](C[C@@H](OC(C)=O)c1nc(C(=O)N[C@@H](Cc2ccccc2)C[C@H](C)C(=O)OC)cs1)C(C)C	0.765 µM	> 25	0.442 µM	> 25	0.000385 µM and < 0.0025 µM	0.0169 µM and < 0.0025 µM	0.000295 µM and 0.0025 µM	> 25	0.000583 µM and 0.0025 µM	> 25	0.000208 µM and < 0.0025 µM	0.00119 µM and < 0.0025 µM	–	> 25	0.000473 µM and 0.0025 µM	> 25	–	> 25 µM	0.000773 µM and 0.0025 µM	> 25
Nc1ncnc2c1c(-c1ccc(Oc3ccccc3)cc1)nn2C[C@@H]1SSC[C@@H]1O	1.62 µM	6.04	0.445 µM	2.24	3.53 µM	13.4 µM	0.0286 µM	0.0807	2.16 µM	26.2	1.58 µM	4.7 µM	0.432 µM	> 84	0.36 µM	12.2	0.18 µM	12.1 µM	0.398 µM	7.01
CN(C)C(=O)SC1=C(c2c(Cl)cccc2Cl)C(=O)c2ccccc21	1.96 µM	8.31	1.66 µM	3.74	9.78 µM	23.5 µM	17.4 µM	37.2	15.5 µM	30.8	2.22 µM	4.42 µM	2.17 µM	5.01	6.38 µM	17.1	14.8 µM	28.6 µM	2.23 µM	5.03
COc1ccc2[nH]c(-c3ccccc3)cc2c1	70 µM	> 100	> 100 µM	> 100	> 100 µM	> 100 µM	> 100 µM	> 100	> 100 µM	> 100	> 100 µM	> 100 µM	> 100 µM	> 100	> 100 µM	> 100	73.8 µM	> 100 µM	> 100 µM	> 100
C=CC(=O)Nc1cccc(Nc2nc(Nc3ccc(OCCOC(F)F)cc3)ncc2F)c1	2.28 µM	6.75	2.49 µM	35.1	1.36 µM	11.6 µM	2.74 µM	35.6	4.12 µM	> 100	4.17 µM	17.5 µM	3.27 µM	> 100	3.33 µM	19.4	3.57 µM	17.2 µM	1.35 µM	10.4
CC(=O)Oc1ccc(C2(c3ccc(OC(C)=O)cc3)C(=O)Nc3ccccc32)cc1	11.8 µM and 16.2 µM	> 79.6	64.5 µM and > 100 µM	> 100	0.064 µM and 0.158 µM	0.524 µM and 0.733 µM	36.6 µM and 46.3 µM	> 100	> 70.8 µM	> 100	0.0741 µM and 0.155 µM	11.9 µM and 29.8 µM	36.7 µM and 31.5 µM	> 100	0.292 µM and 0.408 µM	> 100	12.7 µM and 12.6 µM	> 62.7 µM and 51.7 µM	18.9 µM and 30.6 µM	> 100
COc1ccc(-c2cc(/C=C/C(=O)c3cc(OC)c(OC)c(OC)c3)[nH]n2)cc1OC	1.61 µM	5.48	2.32 µM	6.19	1.36 µM	2.93 µM	1.04 µM	3.6	1.76 µM	4.31	1.75 µM	3.57 µM	1.5 µM	4.16	2.56 µM	11.7	0.78 µM	2.27 µM	1.45 µM	2.82
COc1cc2nnn3c4ncccc4c(N=O)c3c2cc1OC	0.0657 µM	–	3.04 µM	17.2	9.43 µM	64.6 µM	3.64 µM	22.8	5.83 µM	> 64.6	8.21 µM	31.2 µM	0.312 µM	> 100	1.77 µM	> 100	2.46 µM	> 100 µM	0.258 µM	2.15
O=c1oc2ccc(F)cc2c(=O)n1-c1ccc(Br)cc1F	0.168 µM	0.528	0.317 µM	2.03	0.411 µM	2.19 µM	0.574 µM	23.7	3.94 µM	> 100	4.03 µM	15.5 µM	1.11 µM	25.5	1.59 µM	> 100	2.23 µM	6.16 µM	0.59 µM	13.6
CCCCCCCCCCCCCCCCS(=O)(=O)c1ccc(NN)cc1	–	> 10	–	> 10	–	> 10 µM	–	> 10	–	> 10	–	> 10 µM	–	> 10	–	> 10	–	> 10 µM	–	> 10
CCc1cccc(CC)c1/C=C/c1cncc(C(=O)NC)c1	1.27 µM	> 25	10.9 µM	> 25	8.95 µM	> 25 µM	9.97 µM	> 25	> 17.6 µM	> 25	13.8 µM	> 25 µM	10.5 µM	> 25	15.4 µM	> 25	9.02 µM	> 25 µM	22.1 µM	> 25
COc1ccc2cc(-c3c(-c4ccncc4)nc(-c4ccc(S(C)=O)cc4C)n3C)ccc2c1 (configuration not stated)	4.66 µM	> 25	7.04 µM	> 25	> 21.9 µM	> 25 µM	24.6 µM	> 25	> 25 µM	> 25	14.8 µM	> 25 µM	> 25 µM	> 25	24.7 µM	> 25	> 22.3 µM	> 25 µM	13.2 µM	> 25
COc1ccc(-c2nc3c(c(=O)n2C(C)=O)C(c2ccc(Cl)cc2)c2sc4c(Cl)cccc4c2O3)cc1 (configuration not stated)	1.33 µM	4.58	0.409 µM	2.62	0.355 µM	2.07 µM	0.365 µM	1.38	1.2 µM	3.4	0.355 µM	1.32 µM	0.376 µM	1.75	0.5 µM	2.37	0.349 µM	1.91 µM	0.897 µM	4.51
